The values that follow come from US10548899B2, “Quinazolinone and benzotriazinone compounds with cholinergic muscarinin M1 receptor positive allosteric modulator activity” (TAKEDA PHARMACEUTICAL COMPANY LIMITED, priority 2015, dated 2020).

The target in the test is T1, human M1 receptor (hCHRM1) (Homo sapiens, UniProt P11229).
T1 construct: expressed in transfected cells; host or cells: CHO-K1
T1 sequence (P11229 1-460): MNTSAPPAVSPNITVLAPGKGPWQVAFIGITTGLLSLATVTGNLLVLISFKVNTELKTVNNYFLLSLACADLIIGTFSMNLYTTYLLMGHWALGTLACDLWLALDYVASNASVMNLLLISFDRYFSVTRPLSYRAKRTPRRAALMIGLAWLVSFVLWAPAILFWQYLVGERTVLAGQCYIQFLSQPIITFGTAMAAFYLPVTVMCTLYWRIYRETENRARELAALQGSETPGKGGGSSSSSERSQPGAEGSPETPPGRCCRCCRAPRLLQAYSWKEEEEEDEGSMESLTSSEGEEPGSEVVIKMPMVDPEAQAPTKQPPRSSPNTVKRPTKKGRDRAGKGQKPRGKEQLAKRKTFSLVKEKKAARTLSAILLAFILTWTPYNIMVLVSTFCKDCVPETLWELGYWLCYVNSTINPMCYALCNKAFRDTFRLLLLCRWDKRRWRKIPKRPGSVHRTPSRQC
Briefly: Measurement of M1 receptor positive allosteric modulator (M1PAM) activity (calcium fluorescence, Fluo-4, FDSS). The following applies: for activity (%) at 10 μM: 10 μM test compound, acetylcholine EC20 (final 0.8 nM) present, 100% = acetylcholine 1 μM, 0% = DMSO, CHO-K1 hCHRM1 cells; for EC50: inflection point of concentration-dependent curve, CHO-K1 cells stably expressing hCHRM1, in presence of acetylcholine at EC20 concentration (final 0.8 nM), read-out: IP value. The test is classed as cell-based. Here is the method: Measurement of M1 receptor positive allosteric modulator (M1PAM) activity
The activity of a test compound in the presence of acetylcholine at EC20 concentration (final concentration 0.8 nM), which affords an action corresponding to about 20% of the maximum activity, was measured as PAM activity. The method is as follows. CHO-K1 cells stably expressing a human M1 receptor (hCHRM1) were plated on a 384-well black clear bottom plate (BD Falcon) at 5,000 cells/well, and cultured in an incubator at 37° C., 5% CO2 for 1 day. The medium in the cell plate was removed, and assay buffer A containing a calcium indicator (Recording medium (DOJINDO LABORATORIES), 0.1% BSA (Wako Pure Chemical Industries, Ltd.), 2.5 μg/mL Fluo-4 AM (DOJINDO LABORATORIES), 0.08% Pluronic F127 (DOJINDO LABORATORIES) and 1.25 mM probenecid (DOJINDO LABORATORIES) were added at 30 μL/well. The cells were left standing in the incubator at 37° C., 5% CO2 for 30 min, and further left standing at room temperature for 30 min. A test compound prepared by diluting with assay buffer B (HESS (Invitrogen), 20 mM HEPES (Invitrogen), 0.1% BSA) containing 3.2 nM acetylcholine was added at 10 μL/well, and the fluorescence was measured by FDSS/μcell (Hamamatsu Photonics K.K.) for 1 min every for 1 second. With the definition that the amount of change in the fluorescence on addition of acetylcholine (final concentration 1 μM) is 100% and that on addition of DMSO instead of a test compound is 0%, the activity (%) of the test compound was calculated, and the inflection point in the concentration-dependent curve of the test compound was calculated as IP values.

For `Cc1c(Cc2ccc(-c3cnn(C)c3)nc2)cc2c(=O)n([C@H]3CCC[C@@H]3O)cnc2c1C` (single isomer, unassigned) [Example 51, 3-(trans-2-hydroxycyclopentyl)-7,8-dimethyl-6-((6-(1-methyl-1H-pyrazol-4-yl)pyridin-3-yl)methyl)quinazolin-4(3H)-one], the “activity (%) at 10 μM” value is listed as 97% and the EC50 stood at 0.079 µM.
The corresponding values for `Cc1c(Cc2ccc(-n3cccn3)nc2)cc2c(=O)n([C@H]3COCC[C@@H]3O)nnc2c1C` [Example 44, 3-[(3S,4S)-4-hydroxytetrahydro-2H-pyran-3-yl]-7,8-dimethyl-6-{[6-(1H-pyrazol-1-yl)pyridin-3-yl]methyl}-1,2,3-benzotriazin-4(3H)-one] are 100% and 0.032 µM.
For the molecule `Cc1c(Cc2ccc(-n3cccn3)cc2)cc2c(=O)n([C@H]3COCC[C@@H]3O)nnc2c1F` [Example 49, 8-fluoro-3-((3S,4S)-4-hydroxytetrahydro-2H-pyran-3-yl)-7-methyl-6-(4-(1H-pyrazol-1-yl)benzyl)-1,2,3-benzotriazin-4(3H)-one], the “activity (%) at 10 μM” value is 97% and the EC50 is 0.018 µM.
The corresponding values for `Cc1c(Cc2ccc(-c3cnn(C)c3)cc2)cc2c(=O)n([C@H]3CCC[C@@H]3O)cnc2c1C` (relative stereo) [Example 17, 3-(trans-2-hydroxycyclopentyl)-7,8-dimethyl-6-(4-(1-methyl-1H-pyrazol-4-yl)benzyl)quinazolin-4(3H)-one] are 90% and 0.055 µM.
On to `Cc1c(Cc2ccc(-c3ccn(C)n3)nc2)cc2c(=O)n([C@H]3CCCC[C@@H]3O)cnc2c1C` [Example 57, 3-((1S,2S)-2-hydroxycyclohexyl)-7,8-dimethyl-6-((6-(1-methyl-1H-pyrazol-3-yl)pyridin-3-yl)methyl)quinazolin-4(3H)-one], for which the “activity (%) at 10 μM” value turned out to be 98% and the EC50 is 0.0073 µM.
In the case of `Cc1c(Cc2ccc(-c3cnn(C)c3)nc2)cc2c(=O)n(CC3CCCO3)nnc2c1C` (stereo not shown) [Example 39, 7,8-dimethyl-6-((6-(1-methyl-1H-pyrazol-4-yl)pyridin-3-yl)methyl)-3-(tetrahydrofuran-2-ylmethyl)-1,2,3-benzotriazin-4(3H)-one], the “activity (%) at 10 μM” value came out at 97% and the EC50 stood at 0.085 µM.
Turning to `Cc1ccc(Cc2cc3c(=O)n([C@H]4CCCC[C@@H]4O)cnc3c(C)c2C)cn1` (relative stereo) [Example 35, 3-(trans-2-hydroxycyclohexyl)-7,8-dimethyl-6-((6-methylpyridin-3-yl)methyl)quinazolin-4(3H)-one], the “activity (%) at 10 μM” value was 96% and the EC50 turned out to be 0.041 µM.
The corresponding values for `Cc1c(Cc2ccc(-c3cnn(C)c3)nc2)cc2c(=O)n([C@H]3CCC[C@@H]3O)cnc2c1C` (single isomer, unassigned) [Example 50, 3-(trans-2-hydroxycyclopentyl)-7,8-dimethyl-6-((6-(1-methyl-1H-pyrazol-4-yl)pyridin-3-yl)methyl)quinazolin-4(3H)-one] are 102% and 0.0065 µM.
The like results for `Cc1c(Cc2ccc(-c3ccn(C)n3)nc2)cc2c(=O)n(CC3CCCO3)nnc2c1Cl` (stereo not shown) [Example 45, 8-chloro-7-methyl-6-((6-(1-methyl-1H-pyrazol-3-yl)pyridin-3-yl)methyl)-3-(tetrahydrofuran-2-ylmethyl)1,2,3-benzotriazin-4(3H)-one] were, in that order, 95% and 0.025 µM.
The corresponding values for `Cc1c(Cc2ccc(-c3cn(C)nn3)nc2)cc2c(=O)n([C@H]3CCC[C@@H]3O)cnc2c1C` (relative stereo) [Example 14, 3-(trans-2-hydroxycyclopentyl)-7,8-dimethyl-6-((6-(1-methyl-1H-1,2,3-triazol-4-yl)pyridin-3-yl)methyl)quinazolin-4(3H)-one] are 100% and 0.011 µM.
As to `Cc1c(Cc2ccc(-c3cnn(C)c3)nc2)cc2c(=O)n([C@H]3CCC[C@@H]3O)cnc2c1C` (relative stereo) [Example 15, 3-(trans-2-hydroxycyclopentyl)-7,8-dimethyl-6-((6-(1-methyl-1H-pyrazol-4-yl)pyridin-3-yl)methyl)quinazolin-4(3H)-one], the “activity (%) at 10 μM” value is given as 100% and the EC50 is 0.011 µM.
The corresponding values for `Cc1c(Cc2ccc(-c3cn(C)nn3)cc2)cc2c(=O)n([C@@H]3CCC[C@H]3O)cnc2c1C` (single isomer, unassigned) [Example 23, 3-(trans-2-hydroxycyclopentyl)-7,8-dimethyl-6-(4-(1-methyl-1H-1,2,3-triazol-4-yl)benzyl)quinazolin-4(3H)-one] are 88% and 0.013 µM.
The like results for `Cc1c(Cc2ccc(-n3cccn3)cc2)cc2c(=O)n([C@H]3COCC[C@@H]3O)cnc2c1C` (single isomer, unassigned) [Example 52, 3-(trans-4-hydroxytetrahydro-2H-pyran-3-yl)-7,8-dimethyl-6-(4-(1H-pyrazol-1-yl)benzyl)quinazolin-4(3H)-one] were, in that order, 98% and 0.006 µM.
The corresponding values for `Cc1c(Cc2ccc(Cl)nc2)cc2c(=O)n([C@H]3CCCC[C@@H]3O)cnc2c1C` (relative stereo) [Example 19, 6-((6-chloropyridin-3-yl)methyl)-3-(trans-2-hydroxycyclohexyl)-7,8-dimethylquinazolin-4(3H)-one] are 97% and 0.066 µM.
On to `Cc1cc2nnn([C@H]3COCC[C@@H]3O)c(=O)c2cc1Cc1ccc(-c2ccn(C)n2)cc1` [Example 48, 3-((3S,4S)-4-hydroxytetrahydro-2H-pyran-3-yl)-7-methyl-6-(4-(1-methyl-1H-pyrazol-3-yl)benzyl)-1,2,3-benzotriazin-4(3H)-one], for which the “activity (%) at 10 μM” value is on record as 98% and the EC50 turned out to be 0.059 µM.
In the case of `Cc1c(Cc2ccc(-n3cccn3)cc2)cc2c(=O)n([C@H]3COCC[C@@H]3O)cnc2c1F` [Example 38, 8-fluoro-3-((3S,4S)-4-hydroxytetrahydro-2H-pyran-3-yl)-7-methyl-6-(4-(1H-pyrazol-1-yl)benzyl)quinazolin-4(3H)-one], the “activity (%) at 10 μM” value stood at 100% and the EC50 was 0.017 µM.
The like results for `Cc1c(Cc2ccc(-n3cccn3)cc2)cc2c(=O)n([C@H]3COCC[C@@H]3O)cnc2c1C` (relative stereo) [Example 3, 3-(trans-4-hydroxytetrahydro-2H-pyran-3-yl)-7,8-dimethyl-6-(4-(1H-pyrazol-1-yl)benzyl)quinazolin-4(3H)-one] were, in that order, 98% and 0.015 µM.
As for `Cc1c(Cc2ccc(-c3ccn(C)n3)cc2)cc2c(=O)n([C@H]3COCC[C@@H]3O)nnc2c1C` (relative stereo) [Example 46, 3-(trans-4-hydroxytetrahydro-2H-pyran-3-yl)-7,8-dimethyl-6-(4-(1-methyl-1H-pyrazol-3-yl)benzyl)-1,2,3-benzotriazin-4(3H)-one], the “activity (%) at 10 μM” value is listed as 97% and the EC50 stood at 0.032 µM.
The like results for `Cc1c(Cc2ccc(-c3cn(C)nn3)cc2)cc2c(=O)n([C@H]3CCC[C@@H]3O)cnc2c1C` (single isomer, unassigned) [Example 22, 3-(trans-2-hydroxycyclopentyl)-7,8-dimethyl-6-(4-(1-methyl-1H-1,2,3-triazol-4-yl)benzyl)quinazolin-4(3H)-one] were, in that order, 95% and 0.079 µM.
Turning to `Cc1c(Cc2ccc(-n3ccnc3)nc2)cc2c(=O)n([C@H]3COCC[C@@H]3O)nnc2c1C` (relative stereo) [Example 42, 3-(trans-4-hydroxytetrahydro-2H-pyran-3-yl)-6-((6-(1H-imidazol-1-yl)pyridin-3-yl)methyl)-7,8-dimethyl-1,2,3-benzotriazin-4(3H)-one], the “activity (%) at 10 μM” value is on record as 100% and the EC50 turned out to be 0.031 µM.
